Data set [1] deals with anesthetized juvenile pigs. The experiment in a line: animal or person. As to conditions: pig. It is filed as in vivo. The method in brief: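 Electromyographic and mechanomyographic responses quantified. Monkeys sedated with intramuscular ketamine, then general anesthesia with intravenous pentobarbital and propofol; juvenile pigs induced with inhaled halothane.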
Data set [2] concerns anesthetized rats (evoked responses of anterior tibial muscle). The experiment in a line: In vivo neuromuscular block and cardiovascular side effects, anesthetized rat (Example 8, Table 3). The method in brief: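 Pentobarbital-anesthetized (i.p.), ventilated adult male rats given saline-dissolved agents i.v.; anterior tibial EMG responses to supramaximal single or train-of-four sciatic/peroneal stimuli, plus 0.1 or 1 Hz stimulation. Doses for 50%, 80%, 90% block derived. Onset: minutes to 80-85% block; RI: 25-75% spontaneous recovery; vagal block, heart rate and blood pressure changes (%) at 80-85% blocking dose.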

In data set [3] the test system is rabbits. The experiment in a line: In vivo neuromuscular block and cardiovascular side effects, rabbit (Example 8, Table 7).
The test system of data set [4] is anesthetized monkeys. The experiment in a line: In vivo neuromuscular block and cardiovascular side effects, monkey (Example 8, Table 6). From the text: Both electromyographic and mechanomyographic responses can be quantified.
The techniques described under a) and b) were employed in other species as needed with the modification that juvenile pigs were initially anesthetized with inhalation of halothane (Table 5) and monkeys were initially sedated with intramuscular ketamine injections prior to inducing and maintaining general anesthesia using pentobarbital and propofol administered intravenously (Table 6).

For data set [5], the system named is anesthetized cats (evoked responses of anterior tibial muscle). The experiment in a line: animal or person. The text has this: a) Adult, male albino rats were anesthetized with pentobarbital injected intraperitoneally. The trachea was cannulated for artificial respiration via a small animal respirator. The carotid artery was cannulated for recording blood pressure via a transducer and heart rate by a cardiotachograph on a polygraph. One external jugular vein was cannulated for i.v. drug administration. Neuromuscular function was monitored by electromyography, recording evoked responses from the anterior tibial muscle as a result of supramaximal nerve stimuli consisting of single or “train-of-four” rectangular pulses of 0.1-0.2 msec duration every 10-12 seconds, delivered to the sciatic or common peroneal nerve by a laboratory nerve stimulator. Another mode of stimulation included repeated single stimuli delivered at 0.1 Hz or 1 Hz. […] The agents were dissolved in physiologic saline and injected intravenously at appropriate time intervals. The intensity, onset, and duration of neuromuscular block and its type were determined with each agent. Through administering several doses, the doses corresponding to 50%, 80% and 90% neuromuscular block were determined. All agents were compared with selected standard neuromuscular blocking compounds, e.g. succinylcholine, pancuronium, mivacurium, or rocuronium.
(§1) Onset=time in minutes to 80-85% neuromuscular block.
(§2) RI=recovery index, minutes, spontaneous recovery, 25-75% neuromuscular response.
(§3) VB=vagal block, %, at 80-85% neuromuscular blocking dose.
ΔHR=change in heart rate, %, at 80-85% neuromuscular blocking dose.
ΔBP=change in arterial blood pressure, %, at 80-85% neuromuscular blocking dose.
b) Adult cats were anesthetized with a mixture of 70 mg/kg alpha chloralose and 0.5 g/kg ethylurethane intraperitoneally. One thigh was fixed in a vertical position by means of a pin at the lower end of the femur. Needle electrodes were placed on the sciatic or the common peroneal nerve. A tendon of the anterior tibial muscle was attached to a force transducer and the muscle responses evoked, as described under a), were recorded. Both electromyographic and mechanomyographic responses can be quantified. Blood pressure and heart rate changes were recorded from appropriately cannulated arteries via a blood pressure transducer and cardiotachograph.

In data set [6] the test system is dogs. The experiment in a line: animal or person. As to conditions: dog. It is filed as in vivo.
The test system of data set [7] is anesthetized rats (evoked responses of anterior tibial muscle). The experiment in a line: Muscle relaxant (neuromuscular blocking) properties, anesthetized rat (Example 9, Table 9). As to conditions: rat; for ED50: intravenous dose causing 50% neuromuscular block, spread in brackets; for RI (recovery index): spontaneous recovery, 25-75% neuromuscular response; for Onset: time to 80-85% neuromuscular block.
From the text: The data on muscle relaxant action were obtained on anesthetized rats, and when indicated, also on juvenile pigs
Adult, male albino rats were anesthetized with pentobarbital injected intraperitoneally. Juvenile, Duroc pigs 9-12 kg body weight were anesthetized with Chloralose Nembutal sodium mixture intraperitoneally after deep sedation with inhaled halothane. The trachea was cannulated for artificial respiration via a small animal respirator. The carotid artery was cannulated for recording blood pressure via a transducer and heart rate by a cardiotachograph on a polygraph. One external jugular vein was cannulated for i.v. drug administration. Neuromuscular function was monitored by electromyography, recording evoked responses from the anterior tibial muscle as a result of supramaximal nerve stimuli consisting of single or “train-of-four” rectangular pulses of 0.1-0.2 msec duration every 10-12 seconds, delivered to the sciatic or common peroneal nerve by a laboratory nerve stimulator. Another mode of stimulation included repeated single stimuli delivered at 0.1 Hz or 1 Hz. […] The agents were dissolved in physiologic saline and injected intravenously at appropriate time intervals. The intensity, onset, and duration of neuromuscular block and its type were determined with each agent. Through administering several doses, the doses corresponding to 50%, 80% and 90% neuromuscular block were determined. All agents were compared with selected standard neuromuscular blocking compounds, e.g., rocuronium.
as §1, §2, §3
HR=change in heart rate, %, at 80-85% neuromuscular blocking dose.
BP=change in arterial blood pressure, %, at 80-85% neuromuscular blocking dose.

Setting [8] is: at 80-85% neuromuscular blocking dose.
Setting [9] is: spontaneous recovery, 25-75% neuromuscular response.
[10] abbreviates: time to 80-85% neuromuscular block.
Where [11] appears, read: rat, at 80-85% neuromuscular blocking dose.
Where [12] appears, read: cat, at 80-85% neuromuscular blocking dose.

Take `COc1cc(C[N+]2(C)[C@@H]3CC[C@H]2C[C@@H](OC(=O)C2CCC2C(=O)O[C@H]2C[C@H]4CC[C@@H](C2)[N+]4(C)Cc2ccc(OC(C)=O)c(OC)c2)C3)ccc1OC(C)=O.[Br-].[Br-]` (stereo partly drawn) [bis[N-(4-acetoxy-3-methoxybenzyl)tropanium-3α-yl]cyclobutane-1,2-dicarboxylate dibromide]: the ED50 is 0.268 mg/kg in data set [1] (Sus scrofa, intravenous dose causing 50% neuromuscular block, read-out: ED50); 0.35 mg/kg in data set [2] (Rattus norvegicus, iv); 0.075 mg/kg in data set [3] (Oryctolagus cuniculus, intravenous dose causing 50% neuromuscular block, read-out: ED50); 0.092 mg/kg in data set [4] (Primates, intravenous dose causing 50% neuromuscular block, read-out: ED50); 0.16 mg/kg in data set [5] (Felis catus, iv); 0.145 mg/kg in data set [6] (Canis lupus familiaris, intravenous dose causing 50% neuromuscular block, read-out: ED50). The “VB (vagal block)” value in data set [1] (setting [8]) was found to be 46%; in data set [2] (setting [11]), 20%; in data set [5] (setting [12]) it was 20%. Further, the “ΔBP (change in arterial blood pressure)” value was 0% in data set [1] (setting [8]); 0% in data set [2] (setting [11]); 0% in data set [3] (setting [8]); 0% in data set [4] (setting [8]); 0% in data set [5] (setting [12]); −15% in data set [6] (setting [8]). Further, the “ΔH (change in heart rate)” value in data set [1] (setting [8]) is 0%; in data set [2] (setting [11]), 0%; in data set [3] (setting [8]) it was 0%; in data set [4] (setting [8]) it was 0%; in data set [5] (setting [12]), 0%; in data set [6] (setting [8]), 45%. Also, the “RI (recovery index)” value was found to be 0.87 min in data set [1] (setting [9]); 0.5 min in data set [2] (rat, spontaneous recovery, 25-75% neuromuscular response); 0.55 min in data set [3] (setting [9]); 0.5 min in data set [4] (setting [9]); 0.5 min in data set [5] (cat, spontaneous recovery, 25-75% neuromuscular response); 0.7 min in data set [6] (setting [9]). Moreover, the Onset in data set [1] (setting [10]) was found to be 0.5 min; in data set [2] (rat, time to 80-85% neuromuscular block), 0.6 min; in data set [3] (setting [10]), 0.6 min; in data set [4] (setting [10]), 0.75 min; in data set [5] (cat, time to 80-85% neuromuscular block), 0.9 min; in data set [6] (setting [10]), 0.85 min.

As to `CC(=O)Oc1ccc(C[N+](C)(C)C2CCC(OC(=O)CCCC(=O)OC3CCC([N+](C)(C)Cc4ccc(OC(C)=O)c(OC(C)=O)c4)CC3)CC2)cc1OC(C)=O.[Br-].[Br-]` (stereo not drawn) [Bis[4-dimethylaminocyclohexyl]glutarate bis(3,4-diacetoxybenzyl bromide)], in data set [7] (in vivo), the “% VB at ED80 nmb (vagal block)” value is 64 (22) %, the “BP (change in arterial blood pressure)” value is on record as −13 (6) % and the “HR (change in heart rate)” value is given as −5 (3) %. In addition, in data set [7], the ED50 is on record as 700 (122) μg/kg, the “RI (recovery index)” value is recorded as 0.8 (0.07) min and the Onset is recorded as 0.75 (0.05) min.

With “Bis[N-(4-acetoxy-3,5-dimethoxybenzyl)-6-azabicyclo[3.2.1]octanium-3-yl]glutarate dibromide”, in data set [7] (in vivo), the “% VB at ED80 nmb (vagal block)” value is reported as 75 (5) %, the “BP (change in arterial blood pressure)” value was “+21 (2) %” and the “HR (change in heart rate)” value is on record as 0%. Also, in data set [7], the ED50 is 3050 (193) μg/kg, the “RI (recovery index)” value is 1.4 (0.1) min and the Onset is on record as 0.75 (0.05) min.

As to “Bis[N-(3,4-dipropionyloxybenzyl)-6-azabicyclo[3.2.1]octanium-3-yl]glutarate dibromide”, in data set [7] (in vivo), the “% VB at ED80 nmb (vagal block)” value was 63 (7) %, the “BP (change in arterial blood pressure)” value is “+8 (2) %” and the “HR (change in heart rate)” value worked out at 0%. Besides, in data set [7], the ED50 was 1002 (174) μg/kg, the “RI (recovery index)” value is recorded as 0.47 (0.03) min and the Onset was 0.5 (0.03) min.

“Bis[N-(3,4-diacetoxybenzyl)-6-azabicyclo[3.2.1]octanium-3-yl]glutarate dibromide”: in data set [7] (in vivo), the “% VB at ED80 nmb (vagal block)” value is on record as 19 (4) %, the “BP (change in arterial blood pressure)” value was 0% and the “HR (change in heart rate)” value is 0%. In data set [7], the ED50 is reported as 440 (39) μg/kg, the “RI (recovery index)” value was 0.4 (0.05) min and the Onset was 0.55 (0.05) min.

As for `CC(=O)Oc1ccc(C[N+](C)(C)C2CCC(OC(=O)/C=C/C(=O)OC3CCC([N+](C)(C)Cc4ccc(OC(C)=O)c(OC(C)=O)c4)CC3)CC2)cc1OC(C)=O.[Br-].[Br-]` (stereo not drawn) [Bis[4-dimethylaminocyclohexyl]fumarate bis(3,4-diacetoxybenzyl bromide)], in data set [7] (in vivo), the “% VB at ED80 nmb (vagal block)” value is 65 (18) %, the “BP (change in arterial blood pressure)” value is −4 (3) % and the “HR (change in heart rate)” value was “+6 (3) %”. In data set [7], the ED50 is 2125 (475) μg/kg, the “RI (recovery index)” value was 1.5 (0.1) min and the Onset is on record as 1.3 (0.1) min.

On to “Bis[4-dimethylaminocyclohexyl]glutarate bis(benzyl bromide) [reference compound]”, for which, in data set [7], the ED50 turned out to be 2500 µg/kg, the “RI (recovery index)” value was 1.65 (0.1) min and the Onset is 1.6 (0.1) min.

For the compound “Bis[N-(4-acetoxy-3-methoxybenzyl)-6-azabicyclo[3.2.1]octanium-3-yl]-glutarate dibromide”, in data set [7] (in vivo), the “% VB at ED80 nmb (vagal block)” value is 68 (96) %, the “BP (change in arterial blood pressure)” value was “+12 (5) %” and the “HR (change in heart rate)” value is 0%. Besides, in data set [7], the ED50 is reported as 1425 (161) μg/kg, the “RI (recovery index)” value is listed as 0.65 (0.05) min and the Onset is reported as 0.53 (0.04) min.

Regarding “Bis[4-dimethylaminocyclohexyl]fumarate bis(4-acetoxy-3-methoxybenzyl bromide)”, in data set [7], the ED50 is 2138 (128) μg/kg, the “RI (recovery index)” value is listed as 0.65 (0.05) min and the Onset is listed as 1.3 (0.05) min.

With `COc1cc(C[N+](C)(C)C2CCC(OC(=O)CCCC(=O)OC3CCC([N+](C)(C)Cc4ccc(OC(C)=O)c(OC)c4)CC3)CC2)ccc1OC(C)=O.[Br-].[Br-]` (stereo not drawn) [Bis[4-dimethylaminocyclohexyl]glutarate bis(4-acetoxy-3-methoxybenzyl bromide)], in data set [7] (setting [8]), the “% VB at ED80 nmb (vagal block)” value is 73 (9) %, the “BP (change in arterial blood pressure)” value is reported as −14 (5) % and the “HR (change in heart rate)” value is on record as −5 (2) %. In data set [7], the ED50 is reported as 2075 (188) μg/kg, the “RI (recovery index)” value was 0.9 (0.05) min and the Onset was 0.84 (0.06) min.

The values are drawn from patent publication US6376510B1, “Neuromuscular relaxants” (Newlaxant LLC, priority 1997, dated 2002).
